Read-outs that look alike come from different tables or passages of the source.
Experiments:
Type in all cases: cell-based
[1] = system: MDA-MB-231(SA) breast cancer cells; experiment: WST-1 tetrazolium dye proliferation assay, MDA-MB-231(SA); details: for inhibition at 1 µM: Homo sapiens, read-out: proliferation inhibitory effect compared with 0.1% DMSO vehicle control group; for proliferation inhibitory effect compared with Gemcitabine: relative to Gemcitabine (= 0), negative = less inhibition than Gemcitabine
Method: (§1) Determination of the ability of compound of formula (I) and combinations between compound of formula (I) and certain therapeutic compounds described herein to inhibit the proliferation of target cells was assayed in vitro against breast and prostate tumour cells.
(§2) MCF-7 and LNCaP cells were purchased from ATCC. MDA-MB-231(SA) cells were obtained from Professor Theresa Guise. PNT1A cells were purchased from ECACC. The cells were grown in a subconfluent condition to maintain a logarithmic growth phase. The cells were dislodged for passage using trypsin-EDTA.
(§3) The proliferation of the cell lines was evaluated by using the commercial WST-1 proliferation measurement reagent. Cells from exponentially growing cultures were plated on the 96 well plates at the appropriate seeding density in the optimal medium to give logarithmic growth over the course of the assay. The plates with MCF-7, MDA-MB-231(SA), PC3M and PNT1A cells were incubated 24h at 37°C in a humidified CO2 atmosphere to allow for recovery from trypsinization before adding of test and control compounds. 1mM stock solutions were prepared from test compounds in DMSO (dimethylsulfoxide) and stored at -20°C. Control compounds Ara-C and Gemcitabine stock solutions were prepared in sterile water. Each test and control compound was diluted twice the final concentration in appropriate media. Half of the final well volume of each dilution was added in six parallels to plates containing cells. Required volume of DMSO was added into the vehicle and control compound dilutions to achieve the final concentration of 0.1% DMSO in all control and test compound wells. The plates were returned to 37°C in a humified CO2 atmosphere and incubated for 5 days. WST-1 reagent (2-(4-Iodophenyl)-3-(4-nitrophenyl)-5-(2,4-disulfophenyl)-2H-tetrazolium) was added to each well according manufacturer's instructions and the plates were returned to 37°C in a humidified CO2 atmosphere for 2 hours. Following incubation the absorbance at a wavelength of 450nm was measured from each well using a multilabel counter. The absorbance at wavelength 450nm correlates linearly to number of viable cells in the well.
(§4) The means and standard deviations for parallel samples were calculated and plotted as a graph.

[2] = system: PC3M prostate cancer cells; experiment: WST-1 tetrazolium dye proliferation assay, PC3M; details: for inhibition at 1 µM: Homo sapiens, PC-3M, 120 h, read-out: proliferation inhibitory effect compared with 0.1% DMSO vehicle control group; for proliferation inhibitory effect compared with Gemcitabine: relative to Gemcitabine (= 0)
Method: as §1, §2, §3, §4

[3] = system: PNT1A immortalized normal prostate cells; experiment: WST-1 tetrazolium dye proliferation assay, PNT1A normal cells; details: Homo sapiens, 120 h, read-out: proliferation inhibitory effect compared with 0.1% DMSO vehicle control group
Method: as §1, §2, §3, §4

[4] = system: pancreatic cancer cells; experiment: Effect on pancreatic cancer cells (no method given); details: other type of cancer cells such as pancreatic cancer cells
[5] = PNT1A immortalized normal prostate cell line, 5 days incubation, mean±SD, concentration not given (primary screen 1 microM)

`Nc1ccn([C@@H]2O[C@H](CO)[C@@H](O)[C@@H]2O)c(=O)n1` [Ara-C] showed an inhibition at 1 µM ([1]; MDA-MB-231, 120 h) of 80.4 ± 2.5%, an inhibition at 1 µM [2] of 72.6 ± 3.5% and an inhibition at 1 µM [3, 5] of 66.5 ± 1.8%.

For `CCSc1ncnc2c1ncn2[C@@H]1O[C@H](CO)[C@@H](O)[C@H]1O` [Compound I, 6-(Ethylthio)inosine], the inhibition at 1 µM ([1]; MDA-MB-231, 120 h) was 93.4 ± 1.3%, the “proliferation inhibitory effect compared with Gemcitabine” value ([1]; MDA-MB-231(SA)) was 11.7±18.0% and the inhibition at 1 µM [2] was 73.6 ± 5.5%. For the same molecule, the “proliferation inhibitory effect compared with Gemcitabine” value ([2]; PC3M) was 26.6±15.4%, the inhibition at 1 µM ([3]; PNT1A) was 26.2 ± 7.7% and the “effect on pancreatic cancer cells” value [4] was “no effect was detected”.

`Nc1ccn([C@@H]2O[C@H](CO)[C@@H](O)C2(F)F)c(=O)n1` [Gemcitabine, 2',2'-difluorodeoxycytidine] was tested, and the inhibition at 1 µM ([1]; MDA-MB-231, 120 h) was 93.3 ± 0.9%, the “proliferation inhibitory effect compared with Gemcitabine” value ([1]; MDA-MB-231(SA)) was 0% and the inhibition at 1 µM [2] was 67.5 ± 7.2%. For the same molecule, the “proliferation inhibitory effect compared with Gemcitabine” value ([2]; PC3M) was 0% and the inhibition at 1 µM [3, 5] was 98.8 ± 0.3%.

For `O=c1[nH]c(=O)n([C@H]2C[C@H](O)[C@@H](CO)O2)cc1F` [Floxuridine], the inhibition at 1 µM ([1]; 120 h, MDA-MB-231(SA), 5 days incubation, mean±SD, concentration not given (primary screen 1 microM)) was 82.4 ± 2.6%, the “proliferation inhibitory effect compared with Gemcitabine” value ([1]; MDA-MB-231(SA)) was -136.4±34.6% and the inhibition at 1 µM ([2]; PC3M, 5 days incubation, mean±SD, concentration not given (primary screen 1 microM)) was 78 ± 3.4%. For the same molecule, the “proliferation inhibitory effect compared with Gemcitabine” value ([2]; PC3M) was 38.9±9.5% and the inhibition at 1 µM [3, 5] was 88.3 ± 0.6%.

In the case of `Nc1ncnc2[nH]ncc12` [Compound A, 4-Aminopyrazolo[3,4-d]pyrimidine], the “proliferation inhibitory effect compared with Gemcitabine” value ([2]; PC3M) is reported as 70.1±2.7%.
